pIC50: −log10 of the molar value. Like-named read-outs stand apart in the source and are kept apart here.
Key:
Assay type in all cases: cell-based
[1] = test system: NCI-H358 cells (KRAS G12C mutation); test: Proliferation inhibition measured by CTG (CellTiter Glo), NCI-H358; conditions: Homo sapiens; for pIC50: 120 hours incubation
Text: (§1) NCI-H358 is a human non-small cell lung cancer cell line with KRAS G12C mutation; PANC-1 and AsPC-1 are pancreatic cancer cell lines with KRAS G12D mutation; AGS is a gastric cancer cell line with KRAS G12D mutation; A427 is a lung cancer cell line with KRAS G12D mutation; THP-1 is a leukemia cell line with NRAS G12D mutation; Hs 578T is a breast cancer cell line with HRAS G12D mutation; SW480 is a colon cancer cell lines with KRAS G12V mutation; A375 is a wild type malignant melanoma cell line. The proliferation inhibitory effect of the compounds on various mutations was evaluated by determining the proliferation inhibitory activity of the compounds on these cell lines.
(§2) The assay was conducted on either 384-well plates or 96-well plates. The procedures are as follows:
(§3) The cell suspensions were added to 384- or 96-well plates (384-well plate: 40 μL; 96-well plate: […]) except for peripheral wells. The plates were incubated in a carbon dioxide incubator overnight. Prepared compounds (10 concentration gradients by serial 3-fold dilution) were added to the wells. The cell plates were incubated in a carbon dioxide incubator for 120 hours. CellTiter Glo reagent (384 well plate: 25 μL; 96 well plate: 100 μL) was added to the 384- or 96-well plates. The plates were shaken for 10 minutes away from light, and incubated for 10 minutes. The plates were read by EnVision system. Inhibition curves were plotted using XLFit and IC50 values were calculated. “IC50>10 μM” is denoted by “*”, “10 μM≥IC50>1 μM” is denoted by “**”, “1 μM≥IC50>100 nM” is denoted by “***”, and “IC50≤100 nM” is denoted by “****”.

[2] = test system: AsPC-1 pancreatic cancer cell line (KRAS G12D mutation); test: Proliferation inhibition measured by CTG (CellTiter Glo), AsPC-1; conditions: Homo sapiens, ASPC1; for pIC50: Table 1, CTG, 120 hours incubation, class symbol
Text: as §1, §2, §3

[3] = test system: A427 lung cancer cell line (KRAS G12D mutation); test: Proliferation inhibition measured by CTG (CellTiter Glo), A427; conditions: Homo sapiens, A-427; for pIC50: Table 1, CTG, 120 hours incubation, class symbol
Text: as §1, §2, §3

[4] = test system: A375 wild type malignant melanoma cell line; test: Proliferation inhibition measured by CTG (CellTiter Glo), A375; conditions: Homo sapiens, A-375; for pIC50: CTG, 120 hours incubation
Text: as §1, §2, §3

[5] = test system: AGS gastric cancer cell line (KRAS G12D mutation); test: Proliferation inhibition measured by CTG (CellTiter Glo), AGS; conditions: for pIC50: CTG, 120 hours incubation
Text: as §1, §2, §3

[6] = test system: Hs 578T breast cancer cell line (HRAS G12D mutation); test: Proliferation inhibition measured by CTG (CellTiter Glo), Hs 578T; conditions: Homo sapiens; for pIC50: Table 1, CTG, 120 hours incubation, class symbol
Text: as §1, §2, §3

[7] = test system: THP-1 leukemia cell line (NRAS G12D mutation); test: Proliferation inhibition measured by CTG (CellTiter Glo), THP-1; conditions: Homo sapiens; for pIC50: Table 1, CTG, 120 hours incubation, class symbol
Text: as §1, §2, §3

A549 cells (G12S) = test: Proliferation inhibition measured by CTG (CellTiter Glo), A549; conditions: Homo sapiens, Table 2, 120 hours incubation
RPMI 8226 cells (G12A) = test: Proliferation inhibition measured by CTG (CellTiter Glo), RPMI 8226; conditions: Homo sapiens, Table 2, 120 hours incubation
[8] = test system: SW480 colon cancer cell line (KRAS G12V mutation); test: Proliferation inhibition measured by CTG (CellTiter Glo), SW480; conditions: Homo sapiens, Table 2, 120 hours incubation, read-out: IC50 SW480 (G12V)
Text: as §1, §2, §3

NCI-H647 cells (G13D) = test: Proliferation inhibition measured by CTG (CellTiter Glo), NCI-H647; conditions: Homo sapiens, Table 2, 120 hours incubation
[9] = test system: PANC-1 pancreatic cancer cell line (KRAS G12D mutation); test: Proliferation inhibition measured by CTG (CellTiter Glo), PANC-1; conditions: Homo sapiens, Table 2, 120 hours incubation
Text: as §1, §2
The cell suspensions were added to 384- or 96-well plates (384-well plate: 40 μL; 96-well plate: […]) except for peripheral wells. The plates were incubated in a carbon dioxide incubator overnight. Prepared compounds (10 concentration gradients by serial 3-fold dilution) were added to the wells. The cell plates were incubated in a carbon dioxide incubator for 120 hours. CellTiter Glo reagent (384 well plate: 25 μL; 96 well plate: 100 μL) was added to the 384- or 96-well plates. […] The plates were read by EnVision system. Inhibition curves were plotted using XLFit and IC50 values were calculated. […]

[10] = Table 1, CTG, class symbol, read-out: IC50 (H358)
[11] = Table 1, class symbol, read-out: IC50 (A375)
[12] = Table 1, number in parentheses, unit not given in Table 1 (legend and Table 2 use μM)
[13] = Table 1, class symbol, read-out: IC50 (AGS)

Row | pIC50 [1, 10] | pIC50 [2] | pIC50 [3] | pIC50 [4, 11] | pIC50 [5, 13] | pIC50 [6] | pIC50 [7] | SMILES | also measured
1 | 6.00 to 7.00 | 6.00 to 7.00 | 6.00 to 7.00 | 6.00 to 7.00 |  |  |  | CN1CCC[C@H]1COc1nc(N2CCn3cncc3C2)c2ccc(-c3cccc4cccc(Cl)c34)cc2n1 [Compound 1] | 
2 | ≥ 7.00 | 6.00 to 7.00 | ≥ 7.00 | 6.00 to 7.00 | ≥ 7.00 | 6.00 to 7.00 | ≥ 7.00 | CN1CCC[C@H]1COc1nc2c(c(N3CCn4cncc4C3)n1)CCN(c1cccc3cccc(Cl)c13)C2 [Compound 2] | IC50 ([1]; Table 1, number in parentheses, no unit printed in Table 1 (Table 2 gives the same values of compound 2 in μM), read-out: IC50 (H358)): 0.063 µM; pIC50 ([1]; Table 2, CTG, read-out: IC50 H358 (G12C)): 7.20; IC50 [2, 12]: 0.139 µM; IC50 ([5]; Table 1, number in parentheses, unit not given in Table 1 (Table 2 gives the same value in μM), read-out: IC50 (AGS)): 0.092 µM; pIC50 ([5]; Table 2, read-out: IC50 AGS (G12D)): 7.04; IC50 [3, 12]: 0.07 µM; IC50 [6, 12]: 0.237 µM; IC50 [7, 12]: 0.067 µM; IC50 ([4]; Table 1, number in parentheses, unit not given in Table 1 (Table 2 gives the same value in μM), read-out: IC50 (A375)): 0.167 µM; pIC50 ([4]; Table 2, read-out: IC50 A375 (wide type)): 6.78; pIC50 (A549 cells (G12S)): 6.60; pIC50 (RPMI 8226 cells (G12A)): 6.89; pIC50 [8]: 7.01; pIC50 (NCI-H647 cells (G13D)): 6.94; pIC50 [9]: 6.71
3 | 5.00 to 6.00 | 5.00 to 6.00 | 6.00 to 7.00 | 6.00 to 7.00 |  |  |  | CN1CCC[C@@H]1COc1nc2c(c(N3CCn4cncc4C3)n1)CO[C@H](c1cccc3cccc(Cl)c13)C2 [Compound 4] | 
4 | 6.00 to 7.00 | 6.00 to 7.00 | 6.00 to 7.00 | 6.00 to 7.00 |  |  |  | CN1CCC[C@H]1COc1nc2c(c(N3CCn4c(cnc4CO)C3)n1)CCN(c1cccc3cccc(Cl)c13)C2 [Compound 6] | 
5 | 6.00 to 7.00 | 5.00 to 6.00 | 6.00 to 7.00 | 6.00 to 7.00 |  |  |  | CN1CCC[C@H]1COc1nc2c(c(N3CCn4c(cnc4N)C3)n1)CCN(c1cccc3cccc(Cl)c13)C2 [Compound 7] | 
6 | 5.00 to 6.00 | 5.00 to 6.00 | 6.00 to 7.00 | 6.00 to 7.00 |  |  |  | CN1CCC[C@H]1COc1nc2c(c(N3CCn4c(cnc4C#N)C3)n1)CCN(c1cccc3cccc(Cl)c13)C2 [Compound 8] | 
7 | ≥ 7.00 | ≥ 7.00 | ≥ 7.00 | 6.00 to 7.00 | ≥ 7.00 |  |  | CN1CCC[C@H]1COc1nc2c(c(N3CCn4cnc(C#N)c4C3)n1)CCN(c1cccc3cccc(Cl)c13)C2 [Compound 9] | 
8 | 6.00 to 7.00 | 6.00 to 7.00 | 6.00 to 7.00 | 6.00 to 7.00 |  |  |  | CN1CCC[C@H]1COc1nc2c(c(N3CCn4nncc4C3)n1)CCN(c1cccc3cccc(Cl)c13)C2 [Compound 10] | 
9 | 6.00 to 7.00 | 6.00 to 7.00 | 6.00 to 7.00 | 6.00 to 7.00 |  |  |  | CC1CN(c2nc(OC[C@@H]3CCCN3C)nc3c2CCN(c2cccc4cccc(Cl)c24)C3)Cc2cncn21 (stereo partly drawn) [Compound 11] | 
10 | 6.00 to 7.00 | ≥ 7.00 | ≥ 7.00 | 6.00 to 7.00 |  |  |  | CN(C)CCOc1nc2c(c(N3CCn4cncc4C3)n1)CCN(c1cccc3cccc(Cl)c13)C2 [Compound 16] | 
11 | 6.00 to 7.00 | 6.00 to 7.00 | 6.00 to 7.00 | 6.00 to 7.00 |  |  |  | Cc1cccc2cccc(N3CCc4c(nc(OC[C@@H]5CCCN5C)nc4N4CCn5cncc5C4)C3)c12 [Compound 17] | 
12 | ≥ 7.00 | ≥ 7.00 |  | 6.00 to 7.00 | ≥ 7.00 | 6.00 to 7.00 | 6.00 to 7.00 | CC(CN(C)C)Oc1nc2c(c(N3CCn4cncc4C3)n1)CCN(c1cccc3cccc(Cl)c13)C2 (stereo not drawn) [Compound 29] | 
13 | 6.00 to 7.00 | 6.00 to 7.00 |  | 6.00 to 7.00 | 6.00 to 7.00 | 5.00 to 6.00 | 6.00 to 7.00 | CN1CCC[C@H]1COc1nc2c(c(N3CCn4cnc(-c5ccccc5)c4C3)n1)CCN(c1cccc3cccc(Cl)c13)C2 [Compound 30] | 
14 | 6.00 to 7.00 | 6.00 to 7.00 |  | 5.00 to 6.00 | 6.00 to 7.00 | 5.00 to 6.00 | 6.00 to 7.00 | Clc1cccc2cccc(N3CCc4c(nc(OCCN5CCCCC5)nc4N4CCn5cncc5C4)C3)c12 [Compound 31] | 
15 | 6.00 to 7.00 | 5.00 to 6.00 |  | 5.00 to 6.00 | 5.00 to 6.00 | 5.00 to 6.00 | 5.00 to 6.00 | CN1CCO[C@@H](COc2nc3c(c(N4CCn5cncc5C4)n2)CCN(c2cccc4cccc(Cl)c24)C3)C1 [Compound 32] | 
16 | ≥ 7.00 | 6.00 to 7.00 |  | 6.00 to 7.00 | ≥ 7.00 | 6.00 to 7.00 | ≥ 7.00 | CN1CCC[C@H]1COc1nc2c(c(N3CCn4cnc(Br)c4C3)n1)CCN(c1cccc3cccc(Cl)c13)C2 [Compound 33] | 
17 | 6.00 to 7.00 | 6.00 to 7.00 |  | 5.00 to 6.00 | 6.00 to 7.00 | 5.00 to 6.00 | 6.00 to 7.00 | CN1CCC[C@H]1COc1nc2c(c(N3CCc4oncc4C3)n1)CCN(c1cccc3cccc(Cl)c13)C2 [Compound 34] | 
18 | 6.00 to 7.00 | 5.00 to 6.00 |  | 5.00 to 6.00 | 5.00 to 6.00 | 5.00 to 6.00 | 5.00 to 6.00 | CN1CCC2(CC1)CC(Oc1nc3c(c(N4CCn5cncc5C4)n1)CCN(c1cccc4cccc(Cl)c14)C3)C2 [Compound 35] | 

Source: patent US20230391785A1, “NITROGEN-CONTAINING HETEROCYCLIC COMPOUND, METHOD FOR PREPARING SAME AND USE OF SAME” (280 Bio, Inc., priority 2021, published 2023)
